Reference: article PMC8580996, “2-Oxoglutarate derivatives can selectively enhance or inhibit the activity of human oxygenases” (Nature Communications, 2021)
“Also recorded” adds a separate entry of the source.

Experiments:
[1] = molecular target: T1, FIH (Homo sapiens, UniProt Q9NWT6); test: 1H NMR assay of FIH-catalyzed oxidative decarboxylation of cosubstrate, with SPE-MS of final mixture; format: biochemical; conditions: 5 μM FIH, 150 μM CA1-20, 150 μM cosubstrate; for hydroxylation of CA1-20 peptide in final reaction mixture (SPE-MS): t = 10 min; for FIH-catalyzed conversion of cosubstrate to succinate / 2-methylsuccinate (1H NMR): within 5 min
Description: Supplementary Figure 2. […] FIH- […]
catalyzed oxidative decarboxylation of 2OG was monitored using a Bruker AVIII 700 NMR machine equipped with a 5 mm 1H(13C/15N) inverse cryoprobe; spectra were analyzed using the Bruker TopSpin 3.6.1 software.
50 μM ammonium iron(II) sulfate hexahydrate (FAS, (NH4)2Fe(SO4)2·6H2O) in 50 mM aqueous Tris-d11 containing 10% v/v D2O (pH 7.5, 25° C). The ratio of the CA 1-20 peptide and the hydroxylated CA 1-20(Ox) peptide, which is the product of the F IH-catalyzed hydroxylation reaction, was determined using SPE-MS after NMR […]
(a) Close-up (3.0-2.2 ppm) of the 1H NMR spectrum of commercial 2OG in 50 mM aqueous Tris-d11 containing 10%v/v D2O (pH 7.5, 25° C); (b) Close-up (3.0-2.2 ppm) of the 1H NMR spectrum of commercial succinate in 50 […]
FIH-catalyzed oxidative decarboxylation of 3-methyl-2OG (1) was monitored using a Bruker AVIII 700 NMR machine equipped with a 5 mm 1H(13C/15N) inverse cryoprobe; spectra were analyzed using the […]
Bruker TopSpin 3.6.1 software. […]
in 50 mM aqueous Tris -d11 containing 10% v/v D2O (pH 7.5, 25° C). The ratio of the CA 1-20 peptide and the hydroxylated CA 1-20(Ox) peptide, which is the product of the FIH -catalyzed hydroxylation reaction, was […]
(a) Close -up (3.4 -0.9 ppm) of the 1H NMR spectrum of synthetic 1 in 50 mM aqueous Tris-d11 containing 10% v/v D2O (pH 7.5, 2 5° C); ( b) Close -up (3.4 -0.9 ppm) of the 1H NMR spectrum of commercial 2 -methylsuccinate ( 36) […]
FIH-catalyzed oxidative decarboxylation of 4-methyl-2OG (12) was monitored using a Bruker AVIII 700 NMR machine equipped with a 5 mm 1H(13C/15N) inverse cryoprobe; spectra were analyzed using the Bruker TopSpin 3.6.1 software.
(NH4)2Fe(SO4)2·6H2O) in 50 mM aqueous Tris-d11 containing 10% v/v D2O (pH 7.5, 25° C). The ratio of the CA 1-20 peptide and the hydroxylated CA 1-20(Ox) peptide, which is the product of the FI H-catalyzed hydroxylation […]
(a) Close -up (3.3 -0.9 ppm) of the 1H NMR spectrum of synthetic 12 in 50 mM aqueous Tris-d11 containing 10% v/v D2O (pH 7.5, 25° C); ( b) Close -up (3.4 -0.9 ppm) of the 1H NMR spectrum of commercial 2 -methylsuccinate ( 36)

[2] = molecular target: T2, AspH (Homo sapiens, UniProt Q12797); conditions: 0.05 μM AspH, 1.0 μM hFX-CP101-119, 3.0 μM 2OG, ref 21 (supplementary ref 1); cited from earlier work
T2 construct: the tetratricopeptide repeat domain (His6-AspH315-758), was produced and purified as previously reported; made in house
T2 sequence (Q12797 315-758): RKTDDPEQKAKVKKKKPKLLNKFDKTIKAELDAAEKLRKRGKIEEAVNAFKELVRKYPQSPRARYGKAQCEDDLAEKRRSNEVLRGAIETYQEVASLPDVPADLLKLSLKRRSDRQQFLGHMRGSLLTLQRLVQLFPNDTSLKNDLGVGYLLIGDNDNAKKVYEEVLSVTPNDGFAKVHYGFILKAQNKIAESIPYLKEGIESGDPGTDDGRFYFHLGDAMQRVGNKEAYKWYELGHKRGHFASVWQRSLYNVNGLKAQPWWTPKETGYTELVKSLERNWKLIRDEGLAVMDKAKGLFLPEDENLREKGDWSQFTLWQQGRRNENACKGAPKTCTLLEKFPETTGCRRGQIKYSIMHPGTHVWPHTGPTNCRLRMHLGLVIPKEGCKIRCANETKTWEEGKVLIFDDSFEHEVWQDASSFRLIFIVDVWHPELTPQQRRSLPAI

[3] = molecular target: T1, FIH; test: SPE-MS FIH turnover (cosubstrate) assay in the absence of 2OG; format: biochemical; conditions: 330 μM 2OG or 2OG derivative, no 2OG, t = 15 min
How it was run: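 With 2OG omitted, 2OG analogues were tested as cosubstrates for recombinant FIH, and +16 Da hydroxylated product versus remaining substrate was monitored by C4 solid-phase extraction coupled to MS. Percent conversion came from product integral over summed substrate and product integrals.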

T1 sequence (Q9NWT6 whole entry): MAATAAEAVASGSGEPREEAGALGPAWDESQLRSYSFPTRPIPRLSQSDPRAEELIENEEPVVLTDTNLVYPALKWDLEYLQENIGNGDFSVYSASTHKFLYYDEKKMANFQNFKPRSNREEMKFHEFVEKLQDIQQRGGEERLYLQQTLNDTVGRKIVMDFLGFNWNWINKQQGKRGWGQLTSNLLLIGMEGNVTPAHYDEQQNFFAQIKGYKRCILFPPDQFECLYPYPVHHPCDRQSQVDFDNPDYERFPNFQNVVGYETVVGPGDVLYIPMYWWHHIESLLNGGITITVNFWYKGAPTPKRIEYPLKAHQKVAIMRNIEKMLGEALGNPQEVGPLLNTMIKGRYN

Structure (SMILES) | hydroxylation of CA1-20 peptide in final reaction mixture (SPE-MS) [1] [%] | FIH-catalyzed conversion of cosubstrate to succinate / 2-methylsuccinate (1H NMR) [1] | IC50 AspH [2] | FIH activity, %-substrate conversion ([3]; CA1–20 substrate) | FIH activity, %-substrate conversion ([3]; HIF-1α788–822 substrate) | IC50 [2] [µM]
CC(CC(=O)C(=O)O)C(=O)O (stereo not drawn) [compound 12, 4-methyl-2OG] | > 95 | ~ 65% | inactive; also recorded: neither inhibits AspH nor FIH | ~80% | ~45% | –
CCC(CC(=O)C(=O)O)C(=O)O (stereo not drawn) [compound 14, 4-ethyl-2OG] | – | – | – | ~75% | ~10% | –
CC(CC(=O)O)C(=O)C(=O)O (stereo not drawn) [compound 1, 3-methyl-2OG] | > 90 | ~ 70% | inactive | > 90% | ~55% | –
O=C(O)C(=O)CC(CCCc1ccccc1)C(=O)O (stereo not drawn) [compound 18, 4-(3-phenylpropyl)-2OG] | – | – | – | ^c<1% ^d<1% | ^c<1% ^d<1% | –
O=C(O)C(=O)C1CCC(C(=O)O)C1 (stereo not drawn) [compound 22, 3-(carboxycarbonyl)cyclopentane-1-carboxylic acid] | – | – | – | ~5% | ~2% | 5
O=C(O)CCC(=O)C(=O)O [2OG, 2-Oxoglutarate] | > 95 | ~ 70% | – | > 95% | ~50% | –
